According to patent US20180320177A1, “COMPOSITIONS AND METHODS FOR THE TREATMENT OF LIVER FIBROSIS” (UNIVERSITY OF CONNECTICUT, priority 2015, published 2018):
“Also recorded” adds a separate entry of the source.

Assays:
HMGB2 protein = biological target: T1, HMGB2 protein (Mus musculus, UniProt P30681); assay: Western blot of HMGB2 protein in liver of CCl4-treated mice; assay type: in vivo
T1 construct: Total protein lysates were prepared from livers and cells in lysis buffer; from tissue; host or cells: mouse liver (C57BL/6J, CCl4 with or without ICM)
T1 sequence (P30681 1-210): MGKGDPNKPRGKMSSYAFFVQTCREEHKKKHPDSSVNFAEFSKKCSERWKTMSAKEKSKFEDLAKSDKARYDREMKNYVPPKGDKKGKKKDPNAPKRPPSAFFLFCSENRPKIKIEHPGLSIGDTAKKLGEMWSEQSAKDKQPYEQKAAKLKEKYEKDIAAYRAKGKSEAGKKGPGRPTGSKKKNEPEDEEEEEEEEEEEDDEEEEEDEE
Experimental: (§1) Animal Care: All animal care and experimental procedures were approved by the Institutional Animal Care and Use Committee at the University of Connecticut. Shp^−/− mice were described previously. Hmgb2^−/− mice were obtained from Dr. Stella Tsirka at Stony Brook University. C57BL/6J mice were purchased from Jackson Laboratory. All mice were maintained on a 12-h light/dark cycle with free access to food and water unless otherwise indicated. For CCl4 treatment, CCl4 (Sigma) was dissolved in corn oil and administered to mice at a dose of 850 μl/kg BW by intraperitoneal injection (IP) twice a week for 6 or 10 weeks with or without ICM. Age-matched control mice were treated with a corn oil vehicle. For CCl4+ICM treatment, mice were treated with CCl4 for 2 weeks and then ICM (Department of Pharmaceutical Sciences at UConn) was dissolved in PEG (Sigma) and treated with mice (10 mg/kg) every day for 4 or 8 weeks in combination with CCl4. To induce overexpression of HMGB2 in liver, AAV8-Hmgb2 or a control AAV8-GFP was given to mice by tail vein injection at a dose of 5×10^10 GC. To knockdown HMGB2 in mouse livers, AAV-shHmgb2 or a control AAV-shGFP was delivered to mice at a dose of 2×10^10 GC by tail vein injection. One week later, mice injected with AAVs were treated with CCl4 or CCl4 +ICM as described above and sacrificed. […]

HMGB1 protein = biological target: T2, HMGB1 protein (Mus musculus, UniProt P63158); assay: Western blot of HMGB1 protein in liver of CCl4-treated mice; assay type: in vivo; conditions: CCl4+ICM (FIG. 16)
T2 construct: Total protein lysates were prepared from livers and cells in lysis buffer; from tissue; host or cells: mouse liver
T2 sequence (P63158 1-215): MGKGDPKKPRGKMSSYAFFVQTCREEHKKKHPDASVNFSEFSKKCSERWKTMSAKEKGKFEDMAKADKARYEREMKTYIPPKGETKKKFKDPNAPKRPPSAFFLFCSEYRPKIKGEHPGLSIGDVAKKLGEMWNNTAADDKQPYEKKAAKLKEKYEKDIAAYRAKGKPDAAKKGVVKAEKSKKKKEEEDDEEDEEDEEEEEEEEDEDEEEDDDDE
Experimental: as §1

Smad signaling = Smad signaling in LX2 cells (Western blot); assay type: cell-based, human; conditions: LX2 cells (FIG. 5C)
Experimental: Western Blotting: Total protein lysates were prepared from livers and cells in lysis buffer containing 50 mM Tris, pH 8.0, 1% Nonidet™ P-40, 150 mM NaCl, 0.5% sodium deoxycholate, 0.1% SDS with protease inhibitors (Thermo Fisher Scientific) and subjected to immunoblotting. Nuclear and cytoplasmic subcellular fractions were prepared using NE-PER nuclear and cytoplasmic extraction reagents (Pierce) according to the manufacturer's instructions. The blot was incubated with a primary antibody, followed by a secondary antibody conjugated to horseradish peroxidase. ECL kit (Pierce) was used to detect the reactivity. The following antibodies were obtained from Cell Signaling Technology: HMGB2, HMGB1, AKT, p-AKT, mTOR, p-mTOR, ERK1/2, pERK1/2, Raptor, Rictor, p53, p21, p-Bad, Smad4, p-Smad2/3, Lamin A/C, a-SMA, MMP2, MMP9, TIMP1, RhoA, Rho-GTP, Cdc42, Rac1/2/3. Anti-HA antibody and anti-beta actin antibody were purchased from Sigma and Santa Cruz Biotechnology, respectively.
Cell Lines The LX-2 human stellate cell line was maintained in Dulbecco's Modified Eagle's Medium (DMEM) supplemented with 2% fetal bovine serum (FBS), 100 IU/ml penicillin, and 100 μg/ml streptomycin. Human hepatocellular carcinoma (HCC) MHCC97H cells were maintained in DMEM supplemented with 10% FBS, 100 IU/ml penicillin, and 100 μg/ml streptomycin, 1 mM HEPES, 1 mM sodium pyruvate, 2 mM L-glutamine. […]

HMGB1 and HMGB2 = conditions: neuroinflammation model; cited from earlier work

HMGB1 protein (HMGB1 protein): less effect on HMGB1 protein
SMILES: CC1(C)Oc2cc(O)ccc2C2C1=CCn1c(=O)n(-c3ccccc3)c(=O)n12 (centres unmarked) [ICM, inflachromene]
liver HMGB2 protein induced by CCl4 (HMGB2 protein; CCl4 mice treated with ICM, Western blot): decreases; also recorded: blocked by ICM; also recorded: reduction in liver HMGB2 protein
selectivity HMGB2 protein versus HMGB1 protein (HMGB2 protein; mouse liver, CCl4+ICM (FIG. 16)): more selective to downregulate HMGB2 protein
Smad signaling (Smad signaling): decreases Smad signaling
inhibitor profile HMGB1 / HMGB2 (HMGB1 and HMGB2): dual inhibitor of both HMGB1 and HMGB2
